Where a SMILES comes first, the peptide text is derived from it. Bridges are numbered along the chain shown (N, C = ends). [ ]: non-standard residue; d: D form. The star is where a group is joined. ξ: configuration not given here. Phe(4-CH2CH2COOH) = N[C@@H](Cc1ccc(CCC(=O)O)cc1)C(=O)O; Phe(3-CF3) = N[C@@H](Cc1cccc(C(F)(F)F)c1)C(=O)O; Phe(4-COOH) = N[C@@H](Cc1ccc(C(=O)O)cc1)C(=O)O; Bip = N[C@@H](Cc1ccc(-c2ccccc2)cc1)C(=O)O; NH(CH2)14COOH = O=C(O)CCCCCCCCCCCCCCN*; Phe(3-Me) = Cc1cccc(C[C@H](N)C(=O)O)c1; Val(3-OH) = CC(C)(O)[C@H](N)C(=O)O; hArg = N=C(N)NCCCC[C@H](N)C(=O)O; 4Pal = N[C@@H](Cc1ccncc1)C(=O)O; NMeE = CN[C@@H](CCC(=O)O)C(=O)O; Cha = N[C@@H](CC1CCCCC1)C(=O)O; Cit = NC(=O)NCCC[C@H](N)C(=O)O; Thr(3ξ) = CC(O)[C@H](N)C(=O)O; 12Ado = NCCCCCCCCCCCC(=O)O; Carboxymethyl = O=C(O)C*; NMeA = CN[C@@H](C)C(=O)O; Nle = CCCC[C@H](N)C(=O)O; Orn = NCCC[C@H](N)C(=O)O; Aun = NCCCCCCCCCCC(=O)O; Dab = NCC[C@H](N)C(=O)O; AEEA = NCCOCCOCC(=O)O
Target: T1, PD-1/PD-L1 interaction (PE-labeled human PD-L1-Ig binding to Jurkat cell line over-expressing human PD-1) (Homo sapiens, UniProt Q15116)
T1 construct: expressed in transfected cells; host or cells: Jurkat
Assay: Jurkat-PD-1 Cell Binding High-Content Screening Assay (CBA)
Conditions: Jurkat-hPD-1 cells, PE-labeled PD-L1-Ig 20 nM final; read-out: Jurkat HPD1 PDL1 IC50
In short: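 Jurkat cells overexpressing human PD-1 (8×10^3/well, DMEM + 10% FCS) preincubated with compound 2 h at 37 °C, then PE-labelled human PD-L1-Ig (20 nM final) for 1 h. Cells fixed in paraformaldehyde with Hoechst 33342; bound PD-L1 quantified by high-content imaging.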

T1 sequence (Q15116 25-288): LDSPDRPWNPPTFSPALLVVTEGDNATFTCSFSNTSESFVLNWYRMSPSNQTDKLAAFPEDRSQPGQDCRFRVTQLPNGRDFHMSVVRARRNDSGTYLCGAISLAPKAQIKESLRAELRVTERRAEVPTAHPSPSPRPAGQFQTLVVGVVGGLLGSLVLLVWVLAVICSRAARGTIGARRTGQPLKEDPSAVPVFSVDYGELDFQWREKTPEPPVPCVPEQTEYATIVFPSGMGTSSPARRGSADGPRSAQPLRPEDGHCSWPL

SMILES	IC50 [nM]
CC(C)C[C@H]1NC(=O)[C@H](C)N(C)C(=O)[C@H](Cc2ccc(OCC(=O)O)cc2)NC(=O)[C@H](Cc2ccc(-c3ccccc3)cc2)NC(=O)[C@H](Cc2ccc(OCC(=O)O)cc2)NC(=O)[C@H](Cc2c[nH]c3ccccc23)NC(=O)[C@H](CC(=O)O)NC(=O)[C@H](Cc2ccc(OCC(=O)O)cc2)NC(=O)[C@H]([C@@H](C)O)NC(=O)CSC[C@@H](C(=O)N[C@@H](CCN)C(=O)NCCOCCOCC(=O)NCCCCCCCCCCC(=O)O)NC(=O)[C@H](CCC(=O)O)NC(=O)[C@H](C(C)C)NC(=O)[C@H](CC2CCCCC2)NC(=O)[C@H](CCN)NC1=O [Example 1392] ({CH2CO}-TY(Carboxymethyl)DWY(Carboxymethyl)[Bip]Y(Carboxymethyl)[NMeA][dL][Dab][Cha]VEC[Dab][AEEA][Aun]-OH; thioether N-14)	62.5
CC(C)C[C@@H]1NC(=O)[C@H](Cc2c[nH]c3ccccc23)NC(=O)[C@H](CC(=O)O)NC(=O)[C@H](Cc2ccc(O)cc2)NC(=O)[C@H](Cc2ccccc2)NC(=O)CSC[C@@H](C(=O)N[C@@H](C)C(=O)N[C@H](CCCCN)C(=O)NCCCCCCCCCCC(=O)O)NC(=O)[C@H](CO)NC(=O)[C@H](C(C)C)NC(=O)[C@H](CC(C)C)NC(=O)[C@H](CCN)NC(=O)[C@@H](CC(C)C)NC(=O)[C@H](C)N(C)C(=O)[C@H](C(C)C)NC(=O)[C@H](Cc2ccc(-c3ccccc3)cc2)NC1=O [Example 2035] ({CH2CO}-FYDWL[Bip]V[NMeA][dL][Dab]LVSCA[dK][Aun]-OH; thioether N-14)	21.9
CC(C)C[C@@H]1NC(=O)[C@H](Cc2c[nH]c3ccccc23)NC(=O)[C@H](CC(=O)O)NC(=O)[C@H](Cc2ccc(OCC(=O)O)cc2)NC(=O)[C@H](Cc2ccc(OCC(=O)O)cc2)NC(=O)CSC[C@@H](C(=O)NCCOCCOCC(=O)NCCCCCCCCCCC(=O)O)NC(=O)[C@H](CO)NC(=O)[C@H](Cc2cnc[nH]2)NC(=O)[C@H](CC2CCCCC2)NC(=O)[C@H](CCN)NC(=O)[C@@H](CC(C)C)NC(=O)[C@H](C)N(C)C(=O)[C@H](C(C)C)NC(=O)[C@H](Cc2ccc(-c3ccccc3)cc2)NC1=O [Example 2445] ({CH2CO}-Y(Carboxymethyl)Y(Carboxymethyl)DWL[Bip]V[NMeA][dL][Dab][Cha]HSC[AEEA][Aun]-OH; thioether N-14)	46.5
CC(C)C[C@@H]1NC(=O)[C@H](Cc2c[nH]c3ccccc23)NC(=O)[C@H](CC(=O)O)NC(=O)[C@H](Cc2ccc(OCC(=O)O)cc2)NC(=O)[C@H](Cc2ccccc2)NC(=O)CSC[C@@H](C(=O)N[C@@H](CCCN)C(=O)NCCCCCCCCCCC(=O)O)NC(=O)[C@H](CCC(N)=O)NC(=O)[C@H](C(C)C)NC(=O)[C@H](CC(C)C)NC(=O)[C@H](CC(N)=O)NC(=O)[C@@H](CC(C)C)NC(=O)[C@H](C)N(C)C(=O)[C@H](C(C)C)NC(=O)[C@H](Cc2ccc(-c3ccccc3)cc2)NC1=O [Example 1345] ({CH2CO}-FY(Carboxymethyl)DWL[Bip]V[NMeA][dL]NLVQC[Orn][Aun]-OH; thioether N-14)	118
Cc1cccc(C[C@@H]2NC(=O)[C@H](CC(=O)O)NC(=O)[C@H](Cc3ccc(OCC(=O)O)cc3)NC(=O)[C@H](Cc3ccc(OCC(=O)O)cc3)NC(=O)CSC[C@@H](C(=O)NCCCCCCCCCCC(=O)O)NC(=O)[C@H](CCC(=O)O)NC(=O)[C@H](C(C)C)NC(=O)[C@H](CC3CCCCC3)NC(=O)[C@H](CCN)NC(=O)[C@@H](CC(C)C)NC(=O)[C@H](CCC(=O)O)N(C)C(=O)[C@H](Cc3ccc(O)cc3)NC(=O)[C@H](Cc3ccc(-c4ccccc4)cc3)NC(=O)[C@H](Cc3ccc(O)cc3)NC2=O)c1 [Example 2256] ({CH2CO}-Y(Carboxymethyl)Y(Carboxymethyl)D[Phe(3-Me)]Y[Bip]Y[NMeE][dL][Dab][Cha]VEC[Aun]-OH; thioether N-14)	98.8

Next, values leading:

IC50 [nM]	SMILES
16.5	CC(C)C[C@@H]1NC(=O)[C@H](Cc2c[nH]c3ccccc23)NC(=O)[C@H](CC(=O)O)NC(=O)[C@H](Cc2ccc(C(=O)O)cc2)NC(=O)[C@H](Cc2ccc(OCC(=O)O)cc2)NC(=O)CSC[C@@H](C(=O)NCCOCCOCC(=O)N[C@@H](CCN)C(=O)NCCCCCCCCCCC(=O)O)NC(=O)[C@H](CCCNC(N)=O)NC(=O)[C@H](C(C)C)NC(=O)[C@H](CC2CCCCC2)NC(=O)[C@H](CCN)NC(=O)[C@@H](CC(C)C)NC(=O)[C@H](C)N(C)C(=O)[C@H](C(C)C)NC(=O)[C@H](Cc2ccc(-c3ccccc3)cc2)NC1=O [Example 2156] ({CH2CO}-Y(Carboxymethyl)[Phe(4-COOH)]DWL[Bip]V[NMeA][dL][Dab][Cha]V[Cit]C[AEEA][Dab][Aun]-OH; thioether N-14)
11.2	CC(C)C[C@@H]1NC(=O)[C@H](Cc2c[nH]c3ccccc23)NC(=O)[C@H](CC(=O)O)NC(=O)[C@H](Cc2ccc(OCC(=O)O)cc2)NC(=O)[C@H](CCCCNC(=N)N)NC(=O)CSC[C@@H](C(=O)NCC(=O)NCCOCCOCC(=O)N[C@@H](CCN)C(=O)NCCCCCCCCCCC(=O)O)NC(=O)[C@H](CCCNC(N)=O)NC(=O)[C@H](C(C)C)NC(=O)[C@H](CC2CCCCC2)NC(=O)[C@H](CCN)NC(=O)[C@@H](CC(C)C)NC(=O)[C@H](C)N(C)C(=O)[C@H](C(C)C)NC(=O)[C@H](Cc2ccc(-c3ccccc3)cc2)NC1=O [Example 2179] ({CH2CO}-[hArg]Y(Carboxymethyl)DWL[Bip]V[NMeA][dL][Dab][Cha]V[Cit]CG[AEEA][Dab][Aun]-OH; thioether N-14)
15.7	Cc1cccc(C[C@@H]2NC(=O)[C@H](CC(=O)O)NC(=O)[C@H](Cc3ccc(OCC(=O)O)cc3)NC(=O)[C@H](C(C)O)NC(=O)CSC[C@@H](C(=O)N[C@@H](CCCN)C(=O)N[C@@H](CO)C(=O)NCCCCCCCCCCCC(=O)O)NC(=O)[C@H](CO)NC(=O)[C@H](C(C)(C)O)NC(=O)[C@H](CC3CCCCC3)NC(=O)[C@H](CCN)NC(=O)[C@@H](CC(C)C)NC(=O)[C@H](C)N(C)C(=O)[C@H](CCCNC(N)=O)NC(=O)[C@H](Cc3ccc(-c4ccccc4)cc3)NC(=O)[C@H](C(C)C)NC2=O)c1 (stereo partly drawn) [Example 2394] ({CH2CO}-[Thr(3ξ)]Y(Carboxymethyl)D[Phe(3-Me)]V[Bip][Cit][NMeA][dL][Dab][Cha][Val(3-OH)]SC[Orn]S[12Ado]-OH; thioether N-14)
11.6	CC(C)C[C@@H]1NC(=O)[C@H](Cc2c[nH]c3ccccc23)NC(=O)[C@H](CC(=O)O)NC(=O)[C@H](Cc2ccc(OCC(=O)O)cc2)NC(=O)[C@H](Cc2ccncc2)NC(=O)CSC[C@@H](C(=O)N[C@@H](CCCN)C(=O)NCCOCCOCC(=O)NCCCCCCCCCCC(=O)O)NC(=O)[C@H](CO)NC(=O)[C@H](C(C)C)NC(=O)[C@H](CC2CCCCC2)NC(=O)[C@H](CCN)NC(=O)[C@@H](CC(C)C)NC(=O)[C@H](C)N(C)C(=O)[C@H](C(C)C)NC(=O)[C@H](Cc2ccc(-c3ccccc3)cc2)NC1=O [Example 2142] ({CH2CO}-[4Pal]Y(Carboxymethyl)DWL[Bip]V[NMeA][dL][Dab][Cha]VSC[Orn][AEEA][Aun]-OH; thioether N-14)

Same assay, conditions: PE-labeled PD-L1-Ig 20 nM final, Jurkat-hPD-1 cells; read-out: Jurkat HPD1 PDL1 IC50

IC50 [nM]	SMILES
48.9	CC(=O)NCCCC[C@@H]1NC(=O)[C@H](C(C)(C)O)NC(=O)[C@H](CC2CCCCC2)NC(=O)[C@H](CCN)NC(=O)[C@@H](CC(C)C)NC(=O)[C@H](C)N(C)C(=O)[C@H](CCC(N)=O)NC(=O)[C@H](Cc2ccc(-c3ccccc3)cc2)NC(=O)[C@H](Cc2ccc(C(=O)O)cc2)NC(=O)[C@H](Cc2cccc(C(F)(F)F)c2)NC(=O)[C@H](CC(=O)O)NC(=O)[C@H](Cc2ccc(OCC(=O)O)cc2)NC(=O)[C@H](Cc2ccc(OCC(=O)O)cc2)NC(=O)CSC[C@@H](C(=O)N[C@@H](CCN)C(=O)NCCCCCCCCCCCCCCC(=O)O)NC1=O [Example 2606] ({CH2CO}-Y(Carboxymethyl)Y(Carboxymethyl)D[Phe(3-CF3)][Phe(4-COOH)][Bip]Q[NMeA][dL][Dab][Cha][Val(3-OH)]K(Ac)C[Dab]-{NH(CH2)14COOH}; thioether N-14)
5.4	CCCC[C@@H]1NC(=O)CSC[C@@H](C(=O)N[C@@H](CCN)C(=O)NCCOCCOCC(=O)NCCCCCCCCCCC(=O)O)NC(=O)[C@H](CCC(=O)O)NC(=O)[C@H](C(C)C)NC(=O)[C@H](CC2CCCCC2)NC(=O)[C@H](CCN)NC(=O)[C@@H](CC(C)C)NC(=O)[C@H](C)N(C)C(=O)[C@H](Cc2ccc(C(=O)O)cc2)NC(=O)[C@H](Cc2ccc(-c3ccccc3)cc2)NC(=O)[C@H](Cc2ccc(C(=O)O)cc2)NC(=O)[C@H](Cc2cccc(C)c2)NC(=O)[C@H](CC(=O)O)NC(=O)[C@H](Cc2ccc(C(=O)O)cc2)NC1=O [Example 2549] ({CH2CO}-[Nle][Phe(4-COOH)]D[Phe(3-Me)][Phe(4-COOH)][Bip][Phe(4-COOH)][NMeA][dL][Dab][Cha]VEC[Dab][AEEA][Aun]-OH; thioether N-14)
3.3	CC(=O)NCCCC[C@@H]1NC(=O)[C@H](C(C)(C)O)NC(=O)[C@H](CC2CCCCC2)NC(=O)[C@H](CCN)NC(=O)[C@@H](CC(C)C)NC(=O)[C@H](C)N(C)C(=O)[C@H](CCC(N)=O)NC(=O)[C@H](Cc2ccc(-c3ccccc3)cc2)NC(=O)[C@H](Cc2ccc(CCC(=O)O)cc2)NC(=O)[C@H](Cc2cccc(C(F)(F)F)c2)NC(=O)[C@H](CC(=O)O)NC(=O)[C@H](Cc2ccc(OCC(=O)O)cc2)NC(=O)[C@H](Cc2ccc(OCC(=O)O)cc2)NC(=O)CSC[C@@H](C(=O)N[C@@H](CCN)C(=O)NCCOCCOCC(=O)NCCCCCCCCCCC(=O)O)NC1=O [Example 2597] ({CH2CO}-Y(Carboxymethyl)Y(Carboxymethyl)D[Phe(3-CF3)][Phe(4-CH2CH2COOH)][Bip]Q[NMeA][dL][Dab][Cha][Val(3-OH)]K(Ac)C[Dab][AEEA][Aun]-OH; thioether N-14)

— patent US20260070945A1, “MACROCYCLIC IMMUNOMODULATORS” (Bristol-Myers Squibb Company, priority 2022, published 2026)
